In ChEMBL document CHEMBL2057181 (Bioorg Med Chem Lett, 2012):

Experiments:
[1] = Inhibition of Haemonchus contortus phosphoethanolamine methyltransferase2 conversion of phosphomonomethylethanolamine to phosphodimethylethanolamine by radiochemical assay in presence of S-adenosylmethionine
[2] = Inhibition of Haemonchus contortus phosphoethanolamine methyltransferase1-mediated conversion of phosphoethanolamine to phosphomonomethylethanolamine by radiochemical assay in presence of S-adenosylmethionine
[3] = biological target: Histamine N-methyltransferase (Homo sapiens, UniProt P50135); experiment: Inhibition of histamine N-methyltransferase by radiochemical assay
Chain of Histamine N-methyltransferase (P50135 whole entry): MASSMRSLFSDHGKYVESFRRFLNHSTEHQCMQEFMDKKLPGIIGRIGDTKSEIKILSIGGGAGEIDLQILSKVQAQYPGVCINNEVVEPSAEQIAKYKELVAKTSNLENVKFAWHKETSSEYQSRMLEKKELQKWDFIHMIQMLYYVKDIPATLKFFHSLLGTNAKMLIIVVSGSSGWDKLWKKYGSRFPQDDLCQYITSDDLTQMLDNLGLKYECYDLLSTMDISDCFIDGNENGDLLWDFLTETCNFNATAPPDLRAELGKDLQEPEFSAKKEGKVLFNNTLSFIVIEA

[4] = biological target: T1, Phosphoethanolamine N-methyltransferase (Plasmodium falciparum, UniProt Q8IDQ9); experiment: Inhibition of Plasmodium falciparum phosphoethanolamine methyltransferase using phospethanolamine as substrate by radiochemical assay in presence of S-adenosylmethionine
T1 sequence (Q8IDQ9 whole entry): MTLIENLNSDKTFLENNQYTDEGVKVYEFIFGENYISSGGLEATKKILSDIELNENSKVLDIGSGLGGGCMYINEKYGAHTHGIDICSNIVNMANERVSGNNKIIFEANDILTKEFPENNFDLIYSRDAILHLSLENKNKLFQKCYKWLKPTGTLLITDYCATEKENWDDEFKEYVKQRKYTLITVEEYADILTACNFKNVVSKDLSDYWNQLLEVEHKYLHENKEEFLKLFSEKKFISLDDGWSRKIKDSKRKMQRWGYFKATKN

| IC50 [1] [µM] | IC50 [2] [µM] | Ki [3] [µM] | Compound | IC50 [4] [µM] |
| --- | --- | --- | --- | --- |
| 3000 | 3000 | 0.019 | CCN(CC)Cc1cc(Nc2ccnc3cc(Cl)ccc23)ccc1O | – |
| – | – | – | COc1cc(NC(C)CCCN)c2ncccc2c1 (stereo not given) [PRIMAQUINE] | 460 |
| – | – | – | CCN(CC)CCCC(C)Nc1ccnc2cc(Cl)ccc12 (stereo not given) [CHLOROQUINE] | 554 |
